From article PMC8371902, “Phase 1 study of M2698, a p70S6K/AKT dual inhibitor, in patients with advanced cancer” (Journal of Hematology & Oncology, 2021)
Where two headings read alike, the source gives them in different places.

Tested on: patients with advanced metastatic cancer
From the text: In this phase 1 study, dose escalation was followed by expansion cohorts of once-daily, oral M2698 in continuous 21-day cycles. Primary objectives were to determine the maximum tolerated dose (MTD), dose-limiting toxicities (DLTs), and recommended phase 2 dose (RP2D). Secondary objectives were to assess safety and tolerability, pharmacokinetics (PK, including food effect) and antitumor activity. Pharmacodynamic biomarker assessments were exploratory. Treatment was discontinued if there was disease progression, toxicity or consent withdrawal.
In Part 1, M2698 monotherapy was investigated in a dose escalation with a food effect cohort. In Part 2, M2698 was investigated as monotherapy (expansion cohort) to further characterize safety, tolerability and pharmacokinetics, and assess antitumor activity in PAM + patients without confounding markers (exploratory).
Dose escalation analysis included all patients who experienced a DLT and those who received ≥ 80% of planned M2698 doses in cycle 1 without experiencing a DLT. Safety analysis included all patients who received ≥ 1 dose of M2698. PK analysis included all patients who received ≥ 1 dose of M2698 and had measurable plasma concentrations. Dose proportionality was tested using the power model (linear regression approach on the log -transformed scale).

With NC(=O)c1cccc2c(N[C@H](CN3CCC3)c3ccc(Cl)c(C(F)(F)F)c3)ncnc12 [M2698] as the compound, how does the “M2698-related TEAE: Ataxia” value (75 mg n=4) read?
Its value is 0.

And the “M2698-related TEAE: Blood and lymphatic system disorders” value (75 mg n=4)?
Its value is 0.

What about the “M2698-related TEAE: Blood creatine phosphokinase increased” value (75 mg n=4) of the same compound?
Its value is 1.

And the “M2698-related TEAE: Blood creatinine increased” value (75 mg n=4)?
The value was 0.

What about the “M2698-related TEAE: Cardiac disorders” value (75 mg n=4) of the same compound?
Its value is 0.

What about the “M2698-related TEAE: Cognitive disorder” value (75 mg n=4) of the same compound?
Its value is 0.

What about the “M2698-related TEAE: Constipation” value (75 mg n=4) of the same compound?
Its value is 0.

What about the “M2698-related TEAE: Decreased appetite” value (75 mg n=4) of the same compound?
The value was 0.

What about the “M2698-related TEAE: Delusion” value (75 mg n=4) of the same compound?
Its value is 0.

And the “M2698-related TEAE: Depression” value (75 mg n=4)?
The value was 0.

And the “M2698-related TEAE: Diarrhoea” value (75 mg n=4)?
The value was 0.

And the “M2698-related TEAE: Diarrhoea haemorrhagic” value (75 mg n=4)?
The value was 0.

And the “M2698-related TEAE: Dizziness” value (75 mg n=4)?
Its value is 0.

And the “M2698-related TEAE: Dry eye” value (75 mg n=4)?
The value was 0.

What about the “M2698-related TEAE: Dry mouth” value (75 mg n=4) of the same compound?
The value was 0.

What about the “M2698-related TEAE: Dysgeusia” value (75 mg n=4) of the same compound?
Its value is 1.

And the “M2698-related TEAE: Dyspepsia” value (75 mg n=4)?
The value was 0.

What about the “M2698-related TEAE: Dysphagia” value (75 mg n=4) of the same compound?
Its value is 0.

What about the “M2698-related TEAE: Energy increased” value (75 mg n=4) of the same compound?
Its value is 0.

And the “M2698-related TEAE: Erythema” value (75 mg n=4)?
The value was 0.

And the “M2698-related TEAE: Euphoric mood” value (75 mg n=4)?
The value was 0.

What about the “M2698-related TEAE: Eye disorders” value (75 mg n=4) of the same compound?
The value was 0.

What about the “M2698-related TEAE: Fatigue” value (75 mg n=4) of the same compound?
The value was 0.

What about the “M2698-related TEAE: Gamma-glutamyltransferase increased” value (75 mg n=4) of the same compound?
Its value is 0.

And the “M2698-related TEAE: Gastrointestinal disorders” value (75 mg n=4)?
The value was 0.

And the “M2698-related TEAE: Gastrooesophageal reflux disease” value (75 mg n=4)?
The value was 0.

And the “M2698-related TEAE: General disorders and administration site conditions” value (75 mg n=4)?
The value was 0.

And the “M2698-related TEAE: Headache” value (75 mg n=4)?
Its value is 0.

And the “M2698-related TEAE: Hyperhidrosis” value (75 mg n=4)?
The value was 0.

What about the “M2698-related TEAE: Hypokalaemia” value (75 mg n=4) of the same compound?
Its value is 0.

And the “M2698-related TEAE: Hypomagnesaemia” value (75 mg n=4)?
The value was 0.

And the “M2698-related TEAE: Insomnia” value (75 mg n=4)?
Its value is 0.

What about the “M2698-related TEAE: Investigations” value (75 mg n=4) of the same compound?
Its value is 1.

And the “M2698-related TEAE: Lipase increased” value (75 mg n=4)?
Its value is 0.

What about the “M2698-related TEAE: Lymphopenia” value (75 mg n=4) of the same compound?
Its value is 0.

What about the “M2698-related TEAE: Metabolism and nutrition disorders” value (75 mg n=4) of the same compound?
Its value is 0.

What about the “M2698-related TEAE: Mucosal inflammation” value (75 mg n=4) of the same compound?
The value was 0.

And the “M2698-related TEAE: Nausea” value (75 mg n=4)?
The value was 0.

What about the “M2698-related TEAE: Nervous system disorders” value (75 mg n=4) of the same compound?
The value was 1.

And the “M2698-related TEAE: Nightmare” value (75 mg n=4)?
The value was 1.

What about the “M2698-related TEAE: Onychomadesis” value (75 mg n=4) of the same compound?
The value was 0.

What about the “M2698-related TEAE: Paranoia” value (75 mg n=4) of the same compound?
Its value is 0.

What about the “M2698-related TEAE: Photosensitivity reaction” value (75 mg n=4) of the same compound?
The value was 0.

And the “M2698-related TEAE: Posterior reversible encephalopathy syndrome” value (75 mg n=4)?
The value was 0.

What about the “M2698-related TEAE: Pruritus generalised” value (75 mg n=4) of the same compound?
Its value is 0.

What about the “M2698-related TEAE: Psychiatric disorders” value (75 mg n=4) of the same compound?
The value was 1.

And the “M2698-related TEAE: Rash” value (75 mg n=4)?
Its value is 0.

And the “M2698-related TEAE: Rash maculo-papular” value (75 mg n=4)?
The value was 1.

What about the “M2698-related TEAE: Skin and subcutaneous tissue disorders” value (75 mg n=4) of the same compound?
Its value is 1.

And the “M2698-related TEAE: Subjects with at least one event” value (75 mg n=4)?
Its value is 2.

And the “M2698-related TEAE: Transaminases increased” value (75 mg n=4)?
Its value is 0.

And the “M2698-related TEAE: Tremor” value (75 mg n=4)?
The value was 0.

What about the “M2698-related TEAE: Vision blurred” value (75 mg n=4) of the same compound?
Its value is 0.

What about the “M2698-related TEAE: Vomiting” value (75 mg n=4) of the same compound?
Its value is 0.

What about the “M2698-related TEAE: White blood cell count decreased” value (75 mg n=4) of the same compound?
The value was 0.

And the “M2698-related TEAE: Abnormal dreams” value (110 mg n=4)?
The value was 0.

What about the “M2698-related TEAE: Affect lability” value (110 mg n=4) of the same compound?
Its value is 0.

And the “M2698-related TEAE: Alanine aminotransferase increased” value (110 mg n=4)?
Its value is 0.

And the “M2698-related TEAE: Amylase increased” value (110 mg n=4)?
The value was 0.

And the “M2698-related TEAE: Anaemia” value (110 mg n=4)?
Its value is 0.

What about the “M2698-related TEAE: Angina pectoris” value (110 mg n=4) of the same compound?
Its value is 0.

What about the “M2698-related TEAE: Anxiety” value (110 mg n=4) of the same compound?
Its value is 0.

What about the “M2698-related TEAE: Aphasia” value (110 mg n=4) of the same compound?
Its value is 0.

And the “M2698-related TEAE: Ataxia” value (110 mg n=4)?
Its value is 0.

And the “M2698-related TEAE: Blood and lymphatic system disorders” value (110 mg n=4)?
The value was 0.

What about the “M2698-related TEAE: Blood creatine phosphokinase increased” value (110 mg n=4) of the same compound?
Its value is 0.

What about the “M2698-related TEAE: Blood creatinine increased” value (110 mg n=4) of the same compound?
Its value is 0.

What about the “M2698-related TEAE: Cardiac disorders” value (110 mg n=4) of the same compound?
The value was 0.

What about the “M2698-related TEAE: Cognitive disorder” value (110 mg n=4) of the same compound?
Its value is 0.

What about the “M2698-related TEAE: Constipation” value (110 mg n=4) of the same compound?
The value was 1.

And the “M2698-related TEAE: Decreased appetite” value (110 mg n=4)?
Its value is 0.

What about the “M2698-related TEAE: Delusion” value (110 mg n=4) of the same compound?
The value was 0.

And the “M2698-related TEAE: Depression” value (110 mg n=4)?
The value was 0.

What about the “M2698-related TEAE: Diarrhoea” value (110 mg n=4) of the same compound?
The value was 0.

What about the “M2698-related TEAE: Diarrhoea haemorrhagic” value (110 mg n=4) of the same compound?
Its value is 0.

And the “M2698-related TEAE: Dizziness” value (110 mg n=4)?
The value was 0.

What about the “M2698-related TEAE: Dry eye” value (110 mg n=4) of the same compound?
Its value is 0.

What about the “M2698-related TEAE: Dry mouth” value (110 mg n=4) of the same compound?
Its value is 0.

And the “M2698-related TEAE: Dysgeusia” value (110 mg n=4)?
Its value is 0.

What about the “M2698-related TEAE: Dyspepsia” value (110 mg n=4) of the same compound?
Its value is 0.

What about the “M2698-related TEAE: Dysphagia” value (110 mg n=4) of the same compound?
Its value is 0.

What about the “M2698-related TEAE: Energy increased” value (110 mg n=4) of the same compound?
The value was 0.

And the “M2698-related TEAE: Erythema” value (110 mg n=4)?
Its value is 0.

What about the “M2698-related TEAE: Euphoric mood” value (110 mg n=4) of the same compound?
Its value is 0.

And the “M2698-related TEAE: Eye disorders” value (110 mg n=4)?
Its value is 0.

And the “M2698-related TEAE: Fatigue” value (110 mg n=4)?
The value was 0.

What about the “M2698-related TEAE: Gamma-glutamyltransferase increased” value (110 mg n=4) of the same compound?
Its value is 0.

And the “M2698-related TEAE: Gastrointestinal disorders” value (110 mg n=4)?
Its value is 1.

What about the “M2698-related TEAE: Gastrooesophageal reflux disease” value (110 mg n=4) of the same compound?
The value was 0.

What about the “M2698-related TEAE: General disorders and administration site conditions” value (110 mg n=4) of the same compound?
The value was 0.

What about the “M2698-related TEAE: Headache” value (110 mg n=4) of the same compound?
The value was 0.

What about the “M2698-related TEAE: Hyperhidrosis” value (110 mg n=4) of the same compound?
The value was 0.

And the “M2698-related TEAE: Hypokalaemia” value (110 mg n=4)?
The value was 0.

And the “M2698-related TEAE: Hypomagnesaemia” value (110 mg n=4)?
Its value is 0.

What about the “M2698-related TEAE: Insomnia” value (110 mg n=4) of the same compound?
Its value is 0.

And the “M2698-related TEAE: Investigations” value (110 mg n=4)?
Its value is 0.

And the “M2698-related TEAE: Lipase increased” value (110 mg n=4)?
The value was 0.

What about the “M2698-related TEAE: Lymphopenia” value (110 mg n=4) of the same compound?
Its value is 0.

And the “M2698-related TEAE: Metabolism and nutrition disorders” value (110 mg n=4)?
Its value is 0.
